Data published in patent US12258574B2, “Methods and compositions for transducing lymphocytes and regulating the activity thereof” (Exuma Biotech Corp., priority 2016, dated 2025).

Legend:
[1] = 1.5 hours post ip administration, n=3, relative to PBS-treated mice
Excerpt: Phenol red is a pH indicator which undergoes a pH-dependent color transition. […] A solution of phenol red has a yellow color at a pH of 6.4 or below, an orange color around pH 7.0, a red color around pH 7.4, and a purple color above pH 7.8.
The CHO xenograft tumor was excised from each mouse. The xenograft tumors were split into two halves with a scalpel and placed on a petri dish. The tumor tissue halves were then cut/sliced repeatedly using the scalpel. Water or 0.05% phenol red solution (50 mg phenol red/100 ml water) was added dropwise to each tumor half, respectively. The color was noted and images were taken of the treated tumor xenografts and of the phenol red solution remaining on the petri plate once the tumor xenograft samples were removed.

[2] = system: cathepsin B, L, S, K, V, and D; details: 1 ml/mouse 1 M ip, 30 min post administration, n=3, vs PBS
Excerpt: Fortunately, the relative protease activity of cathepsin is higher at lower pH and lower at higher pH. Therefore, the measurement of intratumoral cathepsin activity can serve as a surrogate measure of the pH of the tumor microenvironment. To measure in vivo activities of cathepsin B, L, S, K, V, and D, the near-infrared ProSense 750 FAST probe (PerkinElmer) was used.
Mice were handled in accordance with Institutional Animal Care and Use Committee approved protocols. Subcutaneous (sc) Chinese Hamster Ovary (CHO) tumor xenografts were established in the hind flank of 12-14 week old female B-NSG mice (NOD-PrkdcscidIl2rgtm1/Bcgen (Beijing Biocytogen Co. Ltd.). Briefly, cultured CHO cells (ATCC, Manassas, VA) were washed in DPBS (ThermoFisher), counted, resuspended in cold DPBS and mixed with an appropriate volume of Matrigel ECM (Corning; final concentration 5 mg/mL) at a concentration of 1.5×10^6 cells/200 μl on ice.
Animals were prepared for injection using standard approved anesthesia with hair removal (Nair) prior to injection. 200 μl of the cell suspension in ECM was injected sc into the rear flanks of the mice. Once tumors were palpable, the tumors were measured using calipers 2 times/week. Tumor volume was calculated using the following equation: (longest diameter*shortest diameter^2)/2. […]

[3] = 50-milliliter bolus; cited from earlier work
CHO-Target 1 cells = test: pH shift cytotoxicity assay / HCl switch RTCA killing assay (xCELLigence); assay type: cell-based; details: added about 3 hours after effector cells, E/T 1:1
Experimental: The cytotoxic activity of transduced T cells before and after pH change by addition of NaHCO3 or NaOH was measured using the xCELLigence System. Briefly, one day before the experiment, target cells (CHO cells stably transfected with a construct to express Target 1 on the cell surface (CHO-Target 1 cells)), were seeded into a 96-well E-plate (ACEA; San Diego, CA) at 10,000 cells/well with X-VIVO 15 media containing 40 mM HEPES and 40 mM PIPES, pH 6.7. Cryopreserved effector cells previously transduced with either lentiviral particles containing the nucleic acid encoding T1B or C1 (T1BVP and C1VP, respectively) produced as discussed above, were thawed and cultured for two days in X-VIVO 15 media containing 100 IU/mL of IL-2 (R&D Systems, Minneapolis, MN). On the day of the experiment, cells transduced with T1BVP or C1VP were washed and resuspended in X-VIVO 15 media containing 40 mM HEPES and 40 mM PIPES, pH 6.7 and then added into the experimental wells at effector cell/target cell ratios (E/T) of 1:1.
Impedance readings measured on the xCELLigence System (ACEA) were taken every 5 minutes and reported as the Cell Index (CI) to quantitate cell confluency as a measure of cell proliferation/cell lysis. Approximately 3 hours after effector cell addition, 8 μl of 7.5% NaHCO3 or 14 μl of 0.5 M NaOH was added into the wells with X-VIVO 15 media containing 40 mM HEPES and 40 mM PIPES, pH 6.7 to increase the pH from 6.7 to 7.4. Impedance readings were continued for approximately 20 hours after effector cell addition. Percentage of specific cytolysis was calculated as follows ((CI Target+C1VP transduced effector T cells)−(CI Target+T1BVP transduced effector T cells))/(CI Target+C1VP transduced effector T cells)×100.
The cytotoxic activity of transduced T cells before and after pH change by addition of HCl was measured using the xCELLigence System. Briefly, one day before the experiment, CHO-Target 1 cells were seeded into a 96 well E-plate at 10,000 cells/well with X-VIVO 15 media containing 40 mM HEPES and 40 mM PIPES, pH 7.4. Cryopreserved effector cells previously transduced with either C1VP or T1BVP, were thawed and cultured for two days in X-VIVO 15 media containing 100 IU/mL of IL-2. On the day of the experiment, cells transduced with T1BVP or C1VP were washed and resuspended in X-VIVO 15 media containing 40 mM HEPES and 40 mM PIPES, pH 7.4 and then added into experimental wells at effector cell/target cell ratios (E/T) of 1:1.
Impedance readings were taken every 5 minutes and reported as the Cell Index (CI). […] Impedance readings were continued for approximately 20 hours after effector cell addition. Percentage of specific cytolysis was calculated as follows ((CI Target+C1VP transduced effector T cells)−(CI Target+T1BVP transduced effector T cells))/(CI Target C1VP)×100.

CHO-Target 1 = test: xCELLigence cytotoxicity of MRB-CAR T cells at pH 6.7 vs pH 7.4, CHO-Target 1; assay type: cell-based; details: E/T 3:1, 1:1, 0.3:1; about 40 hours
Experimental: The cytotoxic activity of the candidate MRB-CARs against target cells expressing either Target 1 or Target 2 (CHO-Target 1 and CHO-Target 2, respectively) was analyzed at a pH of 7.4 (normal tissue) or a pH of 6.7 (reduced pH of a tumor microenvironment) by xCELLigence System (ACEA). Briefly, target cells expressing Target 1 or Target 2 were seeded to a 96-well E-plate at 20,000 cells/well with tumor conditional or normal medium one day before the experiment. Effector cells were rested for two days in human T cell medium containing 100 IU/mL of IL-2 and added into experimental wells containing Target cells at effector cell/target cell ratios (E/T) of 3:1, 1:1, and 0.3:1.
Impedance readings were taken every 5 minutes for approximately 40 hours after effector cell addition and impedance was reported as the Cell Index (CI). Percentage of specific cytolysis was calculated as follows ((CI Target+Control virus transduced effector T cells)−(CI Target+effector T cells transduced with CARs directed to Target 1 or Target 2))/(CI Target+Control virus transduced effector T cells)×100.

Row | Molecule | color of phenol red indicator on excised tumor tissue [1] | intratumoral cathepsin activity (RFU), surrogate of tumor microenvironment pH [2] | rise of serum pH [3] | effect on cytotoxic activity of MRB-CAR T cells of raising media pH from 6.7 to 7.4 (CHO-Target 1 cells) | cytotoxic activity on target cells at pH 6.7 versus pH 7.4 (CHO-Target 1)
1 | O=C([O-])O.[Na+] [sodium bicarbonate] | from yellow/orange to red | decreased cathepsin activity | approximately 0.1 pH unit | inhibited the cytotoxic activity | –
2 | MRB-CAR T1A: anti-Target 1 microenvironment restricted CAR; VH SEQ ID NO:281, Linker 1, VL SEQ ID NO:282; CD28 stalk/TM, ICΔ, CD3Z (protein, anti-Target 1 microenvironment restricted CAR; CD28 stalk/TM, ICΔ, CD3Z) EVQLVQSGAEVKKPGATVKISCKVSGYSFWGATMNWIRQPPGKGLEWIGLIKPSNGGTSYNQKFKGRVTISADKSISTAYLQWSSLKASDTAMYYCAHGHYESYEAMDYWGQGTLVTVSSGGGGSGGGGSGGGGSDIQMTQSPSSLSASVGDRVTITCKASQDVVSAVAWYQQKPGQAPRLLIYWQDTRHTGVPSRFSGSGSGTEFTLTISSLQPDDFATYYCQEHFSPPLTFGQGTKVEIKFWVLVVVGGVLACYSLLVTVAFIIFWVRSKRSRLLHSDYMNMTPRRPGPTRKHYQAYAAARDFAAYRSRVKFSRSADAPAYQQGQNQLYNELNLGRREEYDVLDKRRGRDPEMGGKPRRKNPQEGLYNELQKDKMAEAYSEIGMKGERRRGKGHDGLYQGLSTATKDTYDALHMQALPPR | – | – | – | – | more effective at lysing target cells at a pH of 6.7 than at a pH of 7.4
